Assay in all cases: growth of human tumour cells (NCI), 48 h
Experiment [1] has as its system COLO 205.
Experiment [2] deals with EKVX.
In experiment [3] the test system is HCT-116.
Experiment [4] relates to HL-60.
Experiment [5] deals with LOX IMVI.
For experiment [6], the system named is M14.
Experiment [7] relates to MCF7.
The test system of experiment [8] is MDA-MB-435.
The test system of experiment [9] is NCI-H460.
For experiment [10], the system named is NCI-H522.
The subject of experiment [11] is OVCAR-4.
The test system of experiment [12] is PC-3.
The test system of experiment [13] is SK-MEL-28.
Experiment [14] deals with SK-MEL-2.
Experiment [15] concerns SNB-19.
Experiment [16] deals with SNB-75.
The subject of experiment [17] is SW-620.
The test system of experiment [18] is TK-10.
Experiment [19] relates to UACC-257.
The test system of experiment [20] is SR.

The structures appear in SMILES notation.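 Step 1: Grow cells in 96-well plates. Step 2: Expose to compound for 48 hours at 5 concentrations. Step 3: Interpolate endpoints linearly; if unreached, use highest concentration. Abbreviation: GI50, concentration required for 50% inhibition of growth.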 Calls of active or inactive are those of the source. No stated cut-off is given here; in the data, active = GI50 up to about 1.1 µM and inactive = higher.

On to `COc1cc(C(c2ccc3c(c2)OCO3)N2C(=O)CCC2C(=O)O)cc(OC)c1OC` (configuration not stated), for which the GI50 in experiment [1], in [2], in [3], in [4], in experiment [5] and in [6] was > 100 µM (inactive) throughout. Moreover, the GI50 in experiment [7], in experiment [8], in experiment [9], in [10], in experiment [11] and in experiment [12] was > 100 µM (inactive) each time. The GI50 in [13], in experiment [14], in [15], in experiment [16], in experiment [17] and in experiment [18] was > 100 µM (inactive) throughout. In [19], the GI50 was > 100 µM (inactive).

With `Nc1ccc2c(c1)N(C(=O)c1cc3cc(NC(=O)c4cc5ccccc5o4)ccc3[nH]1)CC2CCl` (configuration not stated), the GI50 in [1] is 0.0904 µM (active); in experiment [2] it was 0.262 µM (active); in experiment [3], 0.0533 µM (active); in [4] it was 0.0416 µM (active); in [5] it was 0.0398 µM (active); in [6], 0.12 µM (active). Also, the GI50 in experiment [7] is 0.0221 µM (active); in experiment [8], 0.162 µM (active); in experiment [9], 0.0205 µM (active); in experiment [10], < 0.01 µM (active); in experiment [11] it was 0.0605 µM (active); in experiment [12], 0.0671 µM (active). For the same compound, the GI50 in experiment [13] was 0.177 µM (active); in [14] it was 0.0755 µM (active); in experiment [15], 0.277 µM (active); in experiment [16], 0.153 µM (active); in [17], 0.0973 µM (active); in [18], 0.283 µM (active). In [19], the GI50 was 0.113 µM (active).

With `CCOC(=O)CC(=O)C(=O)NN=C1NCCCN1`, the GI50 in experiment [1], in experiment [2], in [3], in experiment [4], in [5] and in experiment [6] was > 100 µM (inactive) throughout. The GI50 in [7], in [8], in experiment [9], in experiment [11], in [12] and in experiment [13] was > 100 µM (inactive) throughout. For the same compound, the GI50 in [14], in experiment [15], in [16], in [20], in [17] and in experiment [18] was > 100 µM (inactive) in each case.

As to `O=c1[nH]c2ccc(CC(=S)N3CCOCC3)cc2o1`, the GI50 in experiment [1] was > 100 µM (inactive); in experiment [2] it was > 100 µM (inactive); in [3], > 100 µM (inactive); in experiment [4] it was 89.9 µM (inactive); in experiment [5], > 100 µM (inactive); in [6], > 100 µM (inactive). Besides, the GI50 in [7], in [8], in [9], in [12], in experiment [13] and in experiment [14] was > 100 µM (inactive) each time. Also, the GI50 in [16] was > 100 µM (inactive); in experiment [20], 56.6 µM (inactive); in [17], > 100 µM (inactive); in [18] it was > 100 µM (inactive); in experiment [19], > 100 µM (inactive).

For `O=c1[nH]c(N/N=C\C(O)C(O)C(O)C(O)CO)nc2ccccc12` (configuration not stated), the GI50 in experiment [1], in [2], in [3], in experiment [4], in experiment [5] and in experiment [6] was > 100 µM (inactive) throughout. Further, the GI50 in [7], in experiment [8], in [9], in experiment [12], in experiment [13] and in experiment [14] was > 100 µM (inactive) throughout. Further, the GI50 in [15], in [16], in experiment [20], in [17], in [18] and in [19] was > 100 µM (inactive) throughout.

Turning to `COC(=O)C1CCC(=O)N1CN(C(C)=O)c1cccc(O)c1` (configuration not stated), the GI50 in experiment [1], in experiment [2], in experiment [3], in experiment [4], in experiment [5] and in experiment [6] was > 100 µM (inactive) in each case. In addition, the GI50 in [7], in [8], in experiment [9], in [10], in [11] and in experiment [12] was > 100 µM (inactive) in each case. Moreover, the GI50 in [13], in experiment [14], in experiment [15], in experiment [16], in experiment [17] and in experiment [18] was > 100 µM (inactive) each time. The GI50 in experiment [19] is > 100 µM (inactive).

Turning to `CCCCCCc1cc2cc(C(=O)Nc3ccccc3)c(=N)oc2cc1O`, the GI50 in experiment [1] is 38.4 µM (inactive); in experiment [2] it was 3.29 µM (inactive); in [3] it was 2.5 µM (inactive); in experiment [4], 4.08 µM (inactive); in experiment [5], 3.23 µM (inactive); in [6], 3.6 µM (inactive). Also, the GI50 in experiment [7] was 4.35 µM (inactive); in experiment [8], 3.53 µM (inactive); in experiment [9] it was 3.24 µM (inactive); in experiment [10] it was 1.94 µM (inactive); in [11], 4.13 µM (inactive); in [12], 2.86 µM (inactive). Also, the GI50 was 6.87 µM (inactive) in experiment [13]; 2.45 µM (inactive) in experiment [14]; 3.33 µM (inactive) in experiment [15]; > 23 µM (inactive) in experiment [16]; 3.97 µM (inactive) in [17]; 6.78 µM (inactive) in [18]. The GI50 in experiment [19] is 4.63 µM (inactive).

Turning to `CC1(C)C2CC1C(/C=N\OCC(=O)O)=CC2=O` (configuration not stated), the GI50 in experiment [1], in experiment [2], in [3], in experiment [4], in experiment [5] and in experiment [6] was > 100 µM (inactive) in each case. For the same compound, the GI50 in experiment [7], in [8], in experiment [9], in [11], in experiment [12] and in experiment [13] was > 100 µM (inactive) each time. Besides, the GI50 in [14], in [15], in experiment [20], in experiment [17], in [18] and in experiment [19] was > 100 µM (inactive) each time.

These data come from ChEMBL document CHEMBL1201862, “PubChem BioAssay data set” (2004).
